Some results are limits rather than exact numbers.

Assay [1] deals with Microfilaria of Dirofilaria immitis. Kind of assay: Motility of Dirofilaria immitis microfilariae in microtiter plate, 3 days, dose response. It counts as cell-based. As to conditions: 72 h, read-out: EC50, motility of D. immitis microfilaria, three days at 37° C., 5% CO2, vs DMSO control.
For assay [2], the system named is L4 stage larvae of Dirofilaria immitis. Kind of assay: Motility of L4 stage Dirofilaria immitis larvae, 3 days, dose response. The note with it: 72 h, read-out: EC50, motility of L4 stage D. immitis, three days at 37° C., 5% CO2, vs DMSO control. It is filed as cell-based.
The test system of assay [3] is Haemonchus contortus L1 larvae. Briefly: Haemonchus contortus larval development L1 to L3, 4 days, dose response. As to conditions: 96 h, read-out: EC50, development of H. contortus larvae from L1 to L3.
Text: Biological Example 2: Screening Method to Test Activity of Compounds Against Haemonchus contortus

On to `Cc1cc2c(C(C)(C)C)c(C(=O)NN3CCOc4ccccc43)cnn2c1-c1cc(F)cc(Cl)c1Cl` [Compound A495], for which the half-maximal effective concentration (EC50) in assay [1], in assay [2] and in assay [3] was less than 10 nM throughout.
As for `Cc1cc2c(N3CCOCC3)c(C(=O)N[C@H]3CCOc4ccccc43)cnn2c1-c1cc(Cl)cc(Cl)c1Cl` [Compound A501], the concentration giving a half-maximal response (EC50) in assay [1] is less than 10 nM; in assay [2], less than 10 nM; in assay [3], 10 to 100 nM.
With `CC(C)(C)c1c(C(=O)N[C@H]2CCOc3ccccc32)cnn2c(-c3c(F)cc(F)cc3F)c(Cl)cc12` [Compound A484], the EC50 in assay [1], in assay [2] and in assay [3] was less than 10 nM each time.
Take `Cc1cc2c(C(C)(C)C)c(C(=O)N[C@H]3CCc4ccccc43)cnn2c1-c1cc(F)cc(Cl)c1Cl` [Compound A558]: the EC50 in assay [1], in assay [2] and in assay [3] was less than 10 nM throughout.
Consider `CC(C)(C)c1c(C(=O)N[C@H]2CCOc3ccccc32)cnn2c(-c3c(Cl)cc(F)cc3Cl)c(Cl)cc12` [Compound A485], for which the concentration for a half-maximal effect (EC50) in assay [1], in assay [2] and in assay [3] was less than 10 nM throughout.
`CC(C)(C)c1c(C(=O)N[C@H]2CCOc3ccccc32)cnn2c(-c3cc(Cl)cc(Cl)c3)c(C(F)(F)F)cc12` [Compound A483]: the figures for the EC50 in assay [1], in assay [2] and in assay [3] were 10 to 100 nM, less than 10 nM and 10 to 100 nM, respectively.
For `Cc1cc2c(C(C)(C)C)c(C(=O)N[C@H]3CCOc4ccccc43)cnn2c1N1CCCCC1` [Compound A524, 4-tert-butyl-N-[(4S)-3,4-dihydro-2H-1-benzopyran-4-yl]-6-methyl-7-(piperidin-1-yl)pyrrolo[1,2-b]pyridazine-3-carboxamide], the EC50 in assay [1], in assay [2] and in assay [3] was 100 to 1000 nM in each case.
For `Cc1cc2c(C(C)(C)C)c(C(=O)N[C@H]3CCOc4ccccc43)cnn2c1-c1c(F)cc(F)cc1F` [Compound A476], the figures for the EC50 in assay [1], in assay [2] and in assay [3] were 10 to 100 nM, less than 10 nM and 10 to 100 nM, respectively.
With `CN(C)c1c(C(=O)N[C@H]2CCOc3ccccc32)cnn2c(-c3cc(F)cc(Cl)c3Cl)c(Cl)cc12` [Compound A478], the EC50 in assay [1] lay in the range of 10 to 100 nM; in assay [2], 100 to 1000 nM; in assay [3], 10 to 100 nM.
As for `CC(C)c1c(C(=O)NN2CCOc3ccccc32)cnn2c(-c3cc(F)cc(Cl)c3Cl)c(Cl)cc12` [Compound A496], the figures for the EC50 in assay [1], in assay [2] and in assay [3] were less than 10 nM, 10 to 100 nM and 10 to 100 nM, respectively.
For `Cc1cc2c(C(C)(C)C)c(C(=O)N[C@H]3CCOc4scnc43)cnn2c1-c1cc(F)cc(Cl)c1Cl` [Compound A550], the EC50 in assay [1], in assay [2] and in assay [3] was 10 to 100 nM throughout.
With `Cc1cc2c(C(C)(C)C)c(C(=O)N[C@H]3CCOc4ccccc43)cnn2c1-c1cc(F)cc(Cl)c1Cl` [Compound A481, 4-tert-butyl-7-(2,3-dichloro-5-fluorophenyl)-N-[(4S)-3,4-dihydro-2H-1-benzopyran-4-yl]-6-methylpyrrolo[1,2-b]pyridazine-3-carboxamide], the results for the EC50 in assay [1], in assay [2] and in assay [3] were 10 to 100 nM, less than 10 nM and 10 to 100 nM, respectively.
As for `O=C(N[C@H]1CCOc2ccccc21)c1cnn2c(-c3cc(F)cc(Cl)c3Cl)c(Cl)cc2c1N1CC(F)(F)C1` [Compound A507], the concentration for a half-maximal effect (EC50) in assay [1], in assay [2] and in assay [3] was less than 10 nM in each case.
Consider `CC(C)(C)c1c(C(=O)N[C@H]2CCOc3ccccc32)cnn2c(-c3cc(Cl)cc(Cl)c3Cl)c(Cl)cc12` [Compound A522], for which the EC50 in assay [1], in assay [2] and in assay [3] was less than 10 nM each time.
Turning to `Cc1cc2c(C(C)(C)C)c(C(=O)N[C@H]3CCOc4ccccc43)cnn2c1-c1c(Cl)cc(F)cc1Cl` [Compound A487], the EC50 was 10 to 100 nM in assay [1], less than 10 nM in assay [2] and 10 to 100 nM in assay [3].
Regarding `CC1(C)CN(c2c(C(=O)N[C@H]3CCOc4ccccc43)cnn3c(-c4cc(F)cc(Cl)c4Cl)c(Cl)cc23)C1` [Compound A567], the EC50 lay in the range of 1000 to 10000 nM in assay [1], 100 to 1000 nM in assay [2] and 1000 to 10000 nM in assay [3].
With `Cc1cc2c(C(C)(C)C)c(C(=O)N[C@H]3CCCc4ccccc43)cnn2c1-c1cc(F)cc(Cl)c1Cl` [Compound A557], the EC50 in assay [1], in assay [2] and in assay [3] was less than 10 nM in each case.
Consider `O=C(N[C@H]1CCOc2ccccc21)c1cnn2c(-c3cc(F)cc(Cl)c3Cl)c(Cl)cc2c1N1CCC1` [Compound A503], for which the concentration for a half-maximal effect (EC50) in assay [1] was less than 10 nM; in assay [2] it was less than 10 nM; in assay [3], 10 to 100 nM.
In the case of `Cc1cc2c(C(C)C)c(C(=O)NN3CCOc4ccccc43)cnn2c1-c1cc(F)cc(Cl)c1Cl` [Compound A498], the EC50 was less than 10 nM in assay [1], less than 10 nM in assay [2] and 10 to 100 nM in assay [3].
`CN(C)c1c(C(=O)N[C@H]2CCOc3ccccc32)cnn2c(-c3cc(Cl)cc(Cl)c3Cl)c(Cl)cc12` [Compound A473]: the EC50 is 10 to 100 nM in assay [1], less than 10 nM in assay [2] and less than 10 nM in assay [3].
Turning to `CC(C)(C)c1c(C(=O)N[C@H]2CCOc3ccccc32)cnn2c(-c3cc(F)cc(Cl)c3Cl)c(Cl)cc12` [Compound A502, 4-tert-butyl-6-chloro-7-(2,3-dichloro-5-fluorophenyl)-N-[(4S)-3,4-dihydro-2H-1-benzopyran-4-yl]pyrrolo[1,2-b]pyridazine-3-carboxamide], the EC50 in assay [1], in assay [2] and in assay [3] was less than 10 nM each time.
Turning to `CC(C)(C)c1c(C(=O)NN2CCOc3ccccc32)cnn2c(-c3cc(F)cc(Cl)c3Cl)c(Cl)cc12` [Compound A494], the half-maximal effective concentration (EC50) was 10 to 100 nM in assay [1], less than 10 nM in assay [2] and 10 to 100 nM in assay [3].
As for `Cc1cc2c(C(C)C)c(C(=O)N[C@H]3CCOc4ccccc43)cnn2c1-c1cc(Cl)cc(Cl)c1` [Compound A465, 7-(3,5-dichlorophenyl)-N-[(4S)-3,4-dihydro-2H-1-benzopyran-4-yl]-6-methyl-4-(propan-2-yl)pyrrolo[1,2-b]pyridazine-3-carboxamide], the concentration for a half-maximal effect (EC50) was in the range of 100 to 1000 nM in assay [1], 10 to 100 nM in assay [2] and 10 to 100 nM in assay [3].
On to `Cc1cc2c(N3CC(F)(F)C3)c(C(=O)N[C@H]3CCOc4ccccc43)cnn2c1-c1cc(F)cc(Cl)c1Cl` [Compound A504], for which the EC50 in assay [1] was less than 10 nM; in assay [2], less than 10 nM; in assay [3], 10 to 100 nM.
With `Cc1cc2c(C(C)C)c(NC(=O)[C@H]3CCOc4ccccc43)cnn2c1-c1cc(Cl)cc(Cl)c1` [Compound A462], the results for the EC50 in assay [1], in assay [2] and in assay [3] were 10 to 100 nM, 10 to 100 nM and 100 to 1000 nM, respectively.
For `Cc1cc2c(N3CCOCC3)c(C(=O)N[C@H]3CCOc4ccccc43)cnn2c1-c1cc(Cl)cc(Cl)c1` [Compound A499], the EC50 in assay [1] was less than 10 nM; in assay [2], less than 10 nM; in assay [3], 10 to 100 nM.
As for `Cc1cc2c(C(C)(C)C)c(C(=O)N[C@H]3CCc4scnc43)cnn2c1-c1cc(F)cc(Cl)c1Cl` [Compound A540], the results for the EC50 in assay [1], in assay [2] and in assay [3] were less than 10 nM, 10 to 100 nM and 10 to 100 nM, respectively.

Broadly, the EC50 is the concentration needed to bring the measured effect to its halfway point.

Values taken from patent publication US11999742B2, “Substituted pyrrolo[1,2-b]pyridazines as anthelmintics” (BOEHRINGER INGELHEIM VETMEDICA GMBH, priority 2021, dated 2024).
